Consider two compounds from US20090227450A1, “Triazole-Based Fungicidal Mixtures” (BASF Aktiengesellschaft, priority 2005, published 2009).

The test system of the experiment is Botrytis cinerea. Put plainly: Activity against the gray mold pathogen Botrytis cinerea in the microtiter test (Botrci). It counts as cell-based. Conditions: microtiter plate, 405 nm, day 7 after inoculation. On the procedure: The expected efficacies of active compound combinations were determined using Colby's formula (Colby, S. R. “Calculating synergistic and antagonistic responses of herbicide combinations”, Weeds, 15, 20-22, 1967) and compared with the observed efficacies.
E=x+y−x·y/100 • E expected efficacy, expressed in % of the untreated control, when using the mixture of the active compounds A and B at the concentrations a and b • x efficacy, expressed in % of the untreated control, when using the active compound A at the concentration a • y efficacy, expressed in % of the untreated control, when using the active compound B at the concentration b
The active compounds were formulated separately as a stock solution having a concentration of 10 000 ppm in DMSO.
The active compound epoxiconazole was used as a commercial formulation.
The stock solution is pipetted onto a microtiter plate (MTP) and diluted to the stated active compound concentration using a malt-based aqueous nutrient medium for fungi. An aqueous spore suspension of Botrytis cinerea was then added. The plates were placed in a water vapor-saturated chamber at temperatures of 18° C. Using an absorption photometer, the MTPs were measured at 405 nm on day 7 after the inoculation. The measured parameters were compared to the growth of the active compound-free control variant and the fungus- and active compound-free blank value to determine the relative growth in % of the pathogens in the individual active compounds.
The visually determined values for the percentage of infected leaf area were initially converted into a mean value and then converted into efficacies in % of the untreated control. An efficacy of 0 means the same degree of infection as in the untreated control, an efficacy of 100 means 0% infection. The expected efficacies for active compound combinations were determined using Colby's formula (Colby, S. R. (Calculating synergistic and antagonistic responses of herbicide combinations”, Weeds, 15, pp. 20-22, 1967) and compared to the observed efficacies.

For the compound `Fc1ccc(C2(Cn3cncn3)OC2c2ccccc2Cl)cc1` (stereo not shown) [Epoxiconazole, epoxiconazole], the “Observed effect (%)” value is given as 15% (conc. 0.016 ppm) and 48% (conc. 0.063 ppm).
For the compound `CO/C=C(/C(=O)OC)c1ccccc1COc1cccc(C(F)(F)F)n1` [Picoxystrobin, picoxystrobin], the “Observed effect (%)” value is recorded as 0% (conc. 0.004 ppm) and 3% (conc. 0.25 ppm).
